Experimental data reported in patent publication US7060844B2, “(3Z)-3-(2,3-dihydro-1H-inden-1-ylidene)-1,3-dihydro-2H-indol-2-ones as kinase inhibitors” (Allergan, Inc., priority 2002, dated 2006).

Key:
[1] = system: VEGF induced increases in intracellular calcium levels in HUVEC (human umbilical vein endothelial cells); test: VEGF Stimulated Ca++ Signal in Vitro (FLIPR, cell based assay); conditions: for IC50: VEGF stimulation 5 ng/mL, 30 min pre-incubation, 0.01 to 10.0 uM
Procedure: VEGF Stimulated Ca^++ Signal in Vitro
Automated FLIPR (Fluorometric Imaging Plate Reader) technology was used to screen for inhibitors of VEGF induced increases in intracellular calcium levels in fluorescent dye loaded endothelial cells. HUVEC (human umbilical vein endothelial cells) (Clonetics) were seeded in 96-well fibronectin coated black-walled plates overnight @ 37° C./5% CO2. Cells were loaded with calcium indicator Fluo-4 for 45 minutes at 37° C. Cells were washed 4 times (Original Cell Wash, Labsystems) to remove extracellular dye. For screening, cells were pre-incubated with test agents for 30 minutes at a single concentration (10 uM) or at concentrations ranging from 0.01 to 10.0 uM, followed by VEGF stimulation (5 ng/mL). Changes in fluorescence at 516 nm were measured simultaneously in all 96 wells using a cooled CCD camera. Data were generated by determining max-min fluorescence levels for unstimulated, stimulated, and drug treated samples. IC50 values for test compounds were calculated from % inhibition of VEGF stimulated responses in the absence of inhibitor.

[2] = molecular target: T1, cytoplasmic domain of the human VEGF receptor (VEGFR-2) (Homo sapiens, UniProt P35968); test: KDR kinase assay (ELISA, poly-Glu-Tyr substrate, with BSA); format: biochemical; conditions: His-VEGFR-2, 3.6 μM ATP, plates incubated with 1% BSA
T1 construct: The cytoplasmic domain of the human VEGF receptor (VEGFR-2) was expressed; His (Histidine tag); made in house; host or cells: insect cells (engineered baculovirus)
T1 sequence (P35968 786-1356 limits assumed): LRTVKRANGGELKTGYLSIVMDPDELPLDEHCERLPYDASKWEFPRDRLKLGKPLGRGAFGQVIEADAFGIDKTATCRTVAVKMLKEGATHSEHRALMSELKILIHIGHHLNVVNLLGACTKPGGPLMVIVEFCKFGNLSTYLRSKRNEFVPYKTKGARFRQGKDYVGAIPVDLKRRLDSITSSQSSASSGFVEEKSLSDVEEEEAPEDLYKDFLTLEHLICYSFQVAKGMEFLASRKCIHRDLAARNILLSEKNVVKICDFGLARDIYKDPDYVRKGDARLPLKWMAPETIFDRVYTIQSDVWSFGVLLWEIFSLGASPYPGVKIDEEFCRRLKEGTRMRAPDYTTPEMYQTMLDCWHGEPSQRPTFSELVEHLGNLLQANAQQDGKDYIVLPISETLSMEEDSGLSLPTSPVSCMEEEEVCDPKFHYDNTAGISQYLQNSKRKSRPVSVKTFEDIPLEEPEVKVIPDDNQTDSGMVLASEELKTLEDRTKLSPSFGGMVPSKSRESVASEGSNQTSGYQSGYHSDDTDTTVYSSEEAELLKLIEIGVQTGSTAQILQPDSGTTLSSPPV
Procedure: The cytoplasmic domain of the human VEGF receptor (VEGFR-2) was expressed as a Histidine-tagged fusion protein following infection of insect cells using an engineered baculovirus. His-VEGFR-2 was purified to homogeneity, as determined by SDS-PAGE, using nickel resin chromatography. Kinase assays were performed in 96 well microtiter plates that were coated overnight with 30 μg of poly-Glu-Tyr (4:1) in 10 mM Phosphate Buffered Saline (PBS), pH 7.2–7.4. The plates were incubated with 1% BSA and then washed four times with PBS prior to starting the reaction. Reactions were carried out in 120 μL reaction volumes containing 3.6 μM ATP in kinase buffer (50 mM Hepes pH 7.4, 20 mM MgCl2, 0.1 mM MnCl2 and 0.2 mM Na3VO4). Test compounds were reconstituted in 100% DMSO and added to the reaction to give a final DMSO concentration of 5%. Reactions were initiated by the addition 0.5 ng of purified protein. Following a ten minute incubation at 25° C., the reactions were washed four times with PBS containing 0.05% Tween-20. 100 μl of a monoclonal anti-phosphotyrosine antibody-peroxidase conjugate was diluted 1:10000 in PBS-Tween-20 and added to the wells for 30 minutes. Following four washes with PBS-Tween-20, 100 μl of 0-Phenylenediamine Dihydrochloride in Phosphate-citrate buffer, containing urea hydrogen peroxide, was added to the wells for 7 minutes as a colorimetric substrate for the peroxidase. The reaction was terminated by the addition of 100 μl of 2.5N H2SO4 to each well and read using a microplate ELISA reader set at 492 nm. IC50 values for compound inhibition were calculated directly from graphs of optical density (arbitrary units) versus compound concentration following subtraction of blank values.

[3] = Homo sapiens, single concentration 10 uM, VEGF 5 ng/mL

Compound `O=C1Nc2ccccc2C1=C1OCc2ccccc21` [Example 1, 3-(3H-isobenzofuran-1-ylidene)-1,3-dihydro-indol-2-one] has an IC50 ([1]; Homo sapiens) of 0.11 µM and an inhibition at 10 µM [1, 3] of 99%.

`O=C1Nc2ccc(Cl)cc2C1=C1OCc2ccccc21` [Example 2, 5-Chloro-3-(3H-isobenzofuran-1-ylidene)-1,3-dihydro-indol-2-one] showed an IC50 ([1]; Homo sapiens) of 0.05 µM and an inhibition at 10 µM [1, 3] of 98%.

`Cc1cccc2c1C(=C1OCc3ccccc31)C(=O)N2` [Example 3, 3-(3H-Isobenzofuran-1-ylidene)-4-methyl-1,3-dihydro-indol-2-one] showed an IC50 ([1]; Homo sapiens) of 0.685 µM and an inhibition at 10 µM [1, 3] of 95%.

Compound `O=C1Nc2ccc(F)cc2C1=C1OCc2ccccc21` [Example 4, 5-Fluoro-3-(3H-isobenzofuran-1-ylidene)-1,3-dihydro-indol-2-one] has an IC50 [2] of 0.073 µM, an IC50 ([1]; Homo sapiens) of 0.055 µM and an inhibition at 10 µM [1, 3] of 99%.

`Nc1ccc2c(c1)C(=C1C(=O)Nc3ccccc31)OC2` [Example 5, 3-(6-Amino-3H-isobenzofuran-1-ylidene)-1,3-dihydro-indol-2-one] gave an IC50 [2] of 0.13 µM, an IC50 ([1]; Homo sapiens) of 0.04 µM and an inhibition at 10 µM [1, 3] of 98%.

For `CCCC(=O)Nc1ccc2c(c1)C(=C1C(=O)Nc3ccccc31)OC2` [Example 7, N-[3-(2-Oxo-1,2-dihydro-indol-3-ylidene)-1,3-dihydro-isobenzofuran-5-yl]-butyramide], the IC50 [2] was 9.78 µM and the inhibition at 10 µM [1, 3] was 5%.

`O=C1Nc2ccccc2C1=C1OCc2ccc(NC(=O)C3CC3)cc21` [Example 8, Cyclopropanecarboxylic acid [3-(2-oxo-1,2-dihydro-indol-3-ylidene)-1,3-dihydro-isobenzofuran-5-yl]-amide] was tested, and the IC50 [2] was 0.85 µM and the inhibition at 10 µM [1, 3] was 48%.

In the case of `O=C(CCCCl)Nc1ccc2c(c1)C(=C1C(=O)Nc3ccccc31)OC2` [Example 9, 4-Chloro-N-[3-(2-oxo-1,2-dihydro-indol-3-ylidene)-1,3-dihydro-isobenzofuran-5-yl]-butyramide], the IC50 [2] is reported as 3.25 µM and the inhibition at 10 µM [1, 3] is reported as 35%.

Work on `COc1ccc(CC(=O)Nc2ccc3c(c2)C(=C2C(=O)Nc4ccccc42)OC3)cc1` [Example 10, 2-(4-Methoxy-phenyl)-N-[3-(2-oxo-1,2-dihydro-indol-3-ylidene)-1,3-dihydro-isobenzofuran-5-yl]-acetamide] yielded an IC50 [2] of 8.02 µM and an inhibition at 10 µM [1, 3] of 50%.

`CCNc1ccc2c(c1)C(=C1C(=O)Nc3ccccc31)OC2` [Example 11, 3-(6-Ethylamino-3H-isobenzofuran-1-ylidene)-1,3-dihydro-indol-2-one] gave an IC50 [2] of 0.66 µM, an IC50 ([1]; Homo sapiens) of 0.78 µM and an inhibition at 10 µM [1, 3] of 99%.

`Nc1ccc2c(c1)COC2=C1C(=O)Nc2ccccc21` [Example 12, 3-(5-Amino-3H-isobenzofuran-1-ylidene)-1,3-dihydro-indol-2-one] showed an IC50 [2] of 0.065 µM, an IC50 ([1]; Homo sapiens) of 0.04 µM and an inhibition at 10 µM [1, 3] of 98%.

In the case of `Nc1ccc(CO)c(C(=O)Nc2ccc3c(c2)C(=C2C(=O)Nc4ccccc42)OC3)c1` [Example 13, 5-Amino-2-hydroxymethyl-N-[3-(2-oxo-1,2-dihydro-indol-3-ylidene)-1,3-dihydro-isobenzofuran-5-yl]-benzamide], the IC50 [2] is reported as 1.34 µM, the IC50 ([1]; Homo sapiens) is reported as 2.1 µM and the inhibition at 10 µM [1, 3] is reported as 99%.

Compound `O=C1Nc2ccccc2C1=C1OCc2ccc(NCCCO)cc21` [Example 14, 3-[6-(3-Hydroxy-propylamino)-3H-isobenzofuran-1-ylidene]-1,3-dihydro-indol-2-one] has an IC50 [2] of 0.64 µM, an IC50 ([1]; Homo sapiens) of 0.85 µM and an inhibition at 10 µM [1, 3] of 100%.

With `CCNc1ccc2c(c1)COC2=C1C(=O)Nc2ccccc21` [Example 15, 3-(5-Ethylamino-3H-isobenzofuran-1-ylidene)-1,3-dihydro-indol-2-one] the IC50 [2] was 0.037 µM, the IC50 ([1]; Homo sapiens) was 0.051 µM and the inhibition at 10 µM [1, 3] was 95%.

With `Nc1ccc2c(c1)C(=C1C(=O)Nc3ccc(Cl)cc31)OC2` [Example 16, 3-(6-Amino-3H-isobenzofuran-1-ylidene)-5-chloro-1,3-dihydro-indol-2-one] the IC50 [2] was 0.015 µM, the IC50 ([1]; Homo sapiens) was 0.06 µM and the inhibition at 10 µM [1, 3] was 99%.

`Nc1ccc2c(c1)CO/C2=C1/C(=O)Nc2ccc(Cl)cc21` [Example 17, 3-(5-Amino-3H-isobenzofuran-1-ylidene)-5-chloro-1,3-dihydro-indol-2-one] showed an IC50 [2] of 0.139 µM, an IC50 ([1]; Homo sapiens) of 0.055 µM and an inhibition at 10 µM [1, 3] of 98%.

Compound `CC(=O)Nc1ccc2c(c1)COC2=C1C(=O)Nc2ccccc21` [Example 18, N-[1-(2-Oxo-1,2-dihydro-indol-3-ylidene)-1,3-dihydro-isobenzofuran-5-yl]-acetamide] has an IC50 [2] of 0.063 µM, an IC50 ([1]; Homo sapiens) of 0.04 µM and an inhibition at 10 µM [1, 3] of 97%.

`CC(=O)Nc1ccc2c(c1)COC2=C1C(=O)Nc2ccc(Cl)cc21` [Example 19, N-[1-(5-Chloro-2-oxo-1,2-dihydro-indol-3-ylidene)-1,3-dihydro-isobenzofuran-5-yl]-acetamide] showed an IC50 [2] of 0.066 µM, an IC50 ([1]; Homo sapiens) of 0.05 µM and an inhibition at 10 µM [1, 3] of 99%.

Compound `CC(=O)Nc1ccc2c(c1)C(=C1C(=O)Nc3ccc(Cl)cc31)OC2` [Example 20, N-[3-(5-Chloro-2-oxo-1,2-dihydro-indol-3-ylidene)-1,3-dihydro-isobenzofuran-5-yl]-acetamide] has an IC50 [2] of 0.39 µM, an IC50 ([1]; Homo sapiens) of 0.097 µM and an inhibition at 10 µM [1, 3] of 99%.

Compound `CN(C)c1ccc2c(c1)C(=C1C(=O)Nc3ccccc31)OC2` [Example 21, 3-(6-Dimethylamino-3H-isobenzofuran-1-ylidene)-1,3-dihydro-indol-2-one] has an IC50 [2] of 1.69 µM, an IC50 ([1]; Homo sapiens) of 1.31 µM and an inhibition at 10 µM [1, 3] of 94%.

Compound `CNc1ccc2c(c1)C(=C1C(=O)Nc3ccccc31)OC2` [Example 22, 3-(6-Methylamino-3H-isobenzofuran-1-ylidene)-1,3-dihydro-indol-2-one] has an IC50 [2] of 0.17 µM, an IC50 ([1]; Homo sapiens) of 0.29 µM and an inhibition at 10 µM [1, 3] of 96%.

`CN(C)c1ccc2c(c1)COC2=C1C(=O)Nc2ccccc21` [Example 23, 3-(5-Dimethylamino-3H-isobenzofuran-1-ylidene)-1,3-dihydro-indol-2-one] was tested, and the IC50 [2] was 0.043 µM, the IC50 ([1]; Homo sapiens) was 0.096 µM and the inhibition at 10 µM [1, 3] was 96%.

Compound `CNc1ccc2c(c1)COC2=C1C(=O)Nc2ccccc21` [Example 24, 3-(5-Methylamino-3H-isobenzofuran-1-ylidene)-1,3-dihydro-indol-2-one] has an IC50 [2] of 0.061 µM, an IC50 ([1]; Homo sapiens) of 0.073 µM and an inhibition at 10 µM [1, 3] of 98%.

“[3-(2-Oxo-1,2-dihydro-indol-3-ylidene)-1,3-dihydro-isobenzofuran-5-yl]-acetamide [Example 6]” was tested, and the IC50 [2] was 1.11 µM, the IC50 [1] was 1.23 µM and the “VEGF (% inhibition @ 10 uM) (Cell based assay, Ca++)” value ([1]; single concentration 10 uM, VEGF 5 ng/mL) was 97%.
